Tests used:
[1] = molecular target: T1, GRK3 (G protein-coupled receptor kinase 3) (Homo sapiens, UniProt P35626); test: in vitro kinase assay (Z-LYTE; ADP-Glo); format: biochemical
T1 construct: recombinant GRK3 protein
T1 sequence (P35626 1-688): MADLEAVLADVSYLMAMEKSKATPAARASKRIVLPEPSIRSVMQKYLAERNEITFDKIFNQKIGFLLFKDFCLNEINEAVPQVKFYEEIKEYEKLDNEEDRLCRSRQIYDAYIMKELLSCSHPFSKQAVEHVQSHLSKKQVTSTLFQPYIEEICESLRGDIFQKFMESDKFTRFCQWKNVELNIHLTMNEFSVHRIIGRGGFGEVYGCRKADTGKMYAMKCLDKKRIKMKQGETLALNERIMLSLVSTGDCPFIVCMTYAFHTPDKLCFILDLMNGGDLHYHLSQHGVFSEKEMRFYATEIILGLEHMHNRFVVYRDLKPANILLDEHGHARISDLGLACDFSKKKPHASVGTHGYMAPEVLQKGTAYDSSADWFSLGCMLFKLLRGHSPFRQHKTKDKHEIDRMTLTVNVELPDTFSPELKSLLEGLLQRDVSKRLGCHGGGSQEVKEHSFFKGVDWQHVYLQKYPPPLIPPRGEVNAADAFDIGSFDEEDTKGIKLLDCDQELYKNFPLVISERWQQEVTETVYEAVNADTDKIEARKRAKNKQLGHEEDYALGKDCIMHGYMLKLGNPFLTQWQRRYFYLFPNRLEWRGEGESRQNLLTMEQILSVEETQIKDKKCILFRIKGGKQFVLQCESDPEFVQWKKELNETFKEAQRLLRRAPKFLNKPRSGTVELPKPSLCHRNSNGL

GRK2 = molecular target: T2, GRK2 (Homo sapiens, UniProt P25098); test: in vitro kinase assay (Z-LYTE; ADP-Glo); format: biochemical
T2 sequence (P25098 1-689): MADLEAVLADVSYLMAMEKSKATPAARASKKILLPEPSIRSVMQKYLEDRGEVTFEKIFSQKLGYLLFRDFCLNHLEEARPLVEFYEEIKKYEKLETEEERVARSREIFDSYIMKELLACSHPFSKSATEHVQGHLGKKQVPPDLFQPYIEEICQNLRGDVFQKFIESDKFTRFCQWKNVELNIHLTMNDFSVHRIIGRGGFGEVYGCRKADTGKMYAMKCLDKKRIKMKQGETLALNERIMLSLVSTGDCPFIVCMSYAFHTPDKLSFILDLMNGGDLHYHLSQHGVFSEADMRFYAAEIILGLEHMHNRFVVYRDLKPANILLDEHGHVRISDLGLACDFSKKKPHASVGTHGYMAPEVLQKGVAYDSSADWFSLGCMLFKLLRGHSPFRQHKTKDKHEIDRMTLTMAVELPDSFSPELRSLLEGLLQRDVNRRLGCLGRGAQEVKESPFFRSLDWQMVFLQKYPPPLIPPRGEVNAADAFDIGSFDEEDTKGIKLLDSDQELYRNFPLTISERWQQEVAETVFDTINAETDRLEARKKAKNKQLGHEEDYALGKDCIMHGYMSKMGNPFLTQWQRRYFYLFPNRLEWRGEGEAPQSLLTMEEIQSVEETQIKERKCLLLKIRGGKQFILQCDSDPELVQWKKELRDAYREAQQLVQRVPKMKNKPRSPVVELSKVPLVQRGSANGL

## Cn1cc(-c2[nH]c3cc(NC(=O)[C@H](N)C4CCCCC4)cc4c3c2C=NNC4=O)cn1 [LD2]
[1]
  IC50: 82 nM
GRK2
  IC50: 1950 nM
